Type in all cases: in vivo
The test system of assay [1] is Euschistus heros (neotropical brown stink bug). The experiment in a line: Example B10: Activity against Euschistus heros. The following applies: 120 h, soybean leaf sprayed, N-2 nymphs, mortality 5 days after infestation. Here is the method: Example B10: Activity Against Euschistus heros (Neotropical Brown Stink Bug) Soybean leaf on agar in 24-well microtiter plates were sprayed with aqueous test solutions prepared from 10,000 ppm DMSO stock solutions. After drying the leaf were infested with N-2 nymphs. The samples were assessed for mortality 5 days after infestation.

In assay [2] the test system is Bemisia tabaci (cotton white fly). Put plainly: Example B5: Activity against Bemisia tabaci (adulticide contact activity, preventative). The settings on record: foliar, 168 h, cotton leaf discs sprayed, adult white flies, mortality 7 DAT. How it is done:
Example B5: Activity Against Bemisia tabaci (Cotton White Fly) (Adulticide Contact Activity, Preventative), Adult Cotton leaf discs were placed on agar in a 24-well microtiter plate and sprayed with test solutions. After drying, the leaf discs were infested with adult white flies. After an incubation period of 7 DAT, samples were checked for mortality and special effects (e.g. phytotoxicity).

The test system of assay [3] is Spodoptera littoralis (Egyptian cotton leaf worm). Put plainly: Example B1: Activity against Spodoptera littoralis (larvicide, feeding/residual contact, preventive). The settings on record: foliar, 72 h, cotton leaf discs sprayed, L1 larvae, mortality, repellent effect, feeding behaviour, growth regulation 3 days after treatment. The text has this:
Example B1: Activity Against Spodoptera littoralis (Egyptian Cotton Leaf Worm) (Larvicide, Feeding/Residual Contact Activity, Preventive) Cotton leaf discs were placed on agar in a 24-well microtiter plate and sprayed with test solutions. After drying, the leaf discs were infested with 5 L1 larvae. The samples were checked for mortality, repellent effect, feeding behaviour, and growth regulation 3 days after treatment (DAT).

Assay [4] has the same test system. Put plainly: Example B7: Activity against Spodoptera littoralis (systemic activity). The following applies: 120 h, systemic via lettuce roots in agar, mortality, repellent effect, feeding behavior, growth regulation 5 days after infestation. The text has this: Example B7: Activity Against Spodoptera littoralis (Egyptian Cotton Leaf Worm) (Systemic Activity) Test compounds were applied by pipette into 24 well plates and mixed with agar. Lettuce seeds were placed on the agar and the multi well plate is closed by another plate which contains also agar. After 7 days the roots have absorbed the compound and the lettuce has grown into the lid plate. The lettuce leaves were now cut off into the lid plate. Spodoptera eggs were pipetted through a plastic stencil on a humid gel blotting paper and the plate closed with it. The samples are checked for mortality, repellent effect, feeding behavior, and growth regulation 5 days after infestation.

The subject of assay [5] is Plutella xylostella (diamond back moth). The experiment in a line: Example B2: Activity against Plutella xylostella (larvicide, feeding/residual contact, preventive). The settings on record: 120 h, artificial diet, L2 larvae, larval mortality, antifeedant, growth regulation after 5 days. How it is done: Example B2: Activity Against Plutella xylostella (Diamond Back Moth) (Larvicide, Feeding/Residual Contact Activity, Preventive) 24-well microtiter plate (MTP) with artificial diet was treated with test solutions by pipetting. After drying, the MTPs were infested with L2 larvae (10-15 per well). After an incubation period of 5 days, samples were checked for larval mortality, antifeedant and growth regulation.

For assay [6], the system named is Diabrotica balteata (corn root worm). Put plainly: Example B3: Activity against Diabrotica balteata (larvae L2 on maize sprouts, feeding/contact, preventative). The following applies: 120 h, maize sprouts sprayed, larval mortality and growth regulation after 5 days. Here is the method: Example B3: Activity Against Diabrotica balteata (Corn Root Worm) (Larvae L2 on Maize Sprouts, Feeding/Contact, Preventative) Maize sprouts, placed on an agar layer in 24 well micro titer plates were treated with test solutions by spraying. After drying, the MTPs were infested with L2 larvae (6-10 per well). After an incubation period of 5 days, samples were checked for larval mortality and growth regulation.

Assay [7] has as its system Myzus persicae (green peach aphid). The experiment in a line: Example B8: Activity against Myzus persicae (feeding/residual contact, preventive, mixed population). The following applies: foliar, 144 h, sunflower leaf discs sprayed, mixed ages, mortality 6 DAT. How it is done:
Example B8: Activity Against Myzus persicae (Green Peach Aphid) (Feeding/Residual Contact Activity, Preventive), Mixed Population Sunflower leaf discs were placed on agar in a 24-well microtiter plate and sprayed with test solutions. After drying, the leaf discs were infested with an aphid population of mixed ages. After an incubation period of 6 DAT, samples were checked for mortality and special effects (e.g. phytotoxicity).

The values that follow come from patent US9775353B2, “Pesticidally active heterocyclic derivatives with sulphur containing substituents” (Syngenta Participations AG, priority 2014, dated 2017).

The pest or weed control is the degree to which the test organism was suppressed or injured, in per cent. For `CCS(=O)(=O)c1cc(-c2ccc(Cl)cc2)cnc1-c1nc2cc(C(F)(F)F)ncc2n1C` [Compound P1, 2-[5-(4-chlorophenyl)-3-ethylsulfonyl-2-pyridyl]-3-methyl-6-(trifluoromethyl)imidazo[4,5-c]pyridine], the pest or weed control at 400 ppm in assay [1], in assay [2], in assay [3], in assay [5], in assay [6] and in assay [7] was > 80% each time. Moreover, the pest or weed control at 12.5 ppm in assay [4] is ≥ 80%.
In the case of `CCS(=O)(=O)c1cc(-c2ccc(Cl)c(Cl)c2)cnc1-c1nc2cc(C(F)(F)F)ncc2n1C` [Compound P6], the pest or weed control at 400 ppm in assay [1], in assay [3], in assay [5], in assay [6] and in assay [7] was > 80% each time. In addition, the pest or weed control at 12.5 ppm in assay [4] is ≥ 80%.
`CCS(=O)(=O)c1cc(-c2ccc(Cl)cc2Cl)cnc1-c1nc2cc(C(F)(F)F)ncc2n1C` [Compound P8]: the pest or weed control at 400 ppm in assay [2], in assay [3], in assay [5], in assay [6] and in assay [7] was > 80% in each case.
Regarding `CCS(=O)(=O)c1cc(-c2ccc(OC)c(F)c2)cnc1-c1nc2cc(C(F)(F)F)ncc2n1C` [Compound P9], the pest or weed control at 400 ppm in assay [3], in assay [5], in assay [6] and in assay [7] was > 80% in each case.
Regarding `CCS(=O)(=O)c1cc(-c2cc(C)c(OC)c(C)c2)cnc1-c1nc2cc(C(F)(F)F)ncc2n1C` [Compound P10], the pest or weed control at 400 ppm in assay [5] and in assay [6] was > 80% in each case.
Turning to `CCS(=O)(=O)c1cc(-c2cc(F)ccc2F)cnc1-c1nc2cc(C(F)(F)F)ncc2n1C` [Compound P11], the pest or weed control at 400 ppm in assay [1], in assay [3], in assay [5], in assay [6] and in assay [7] was > 80% each time.
For `CCS(=O)(=O)c1cc(-c2ccccc2Cl)cnc1-c1nc2cc(C(F)(F)F)ncc2n1C` [Compound P12], the pest or weed control at 400 ppm in assay [1], in assay [3], in assay [5], in assay [6] and in assay [7] was > 80% throughout.
Consider `CCS(=O)(=O)c1cc(-c2ccc(Cl)cc2C)cnc1-c1nc2cc(C(F)(F)F)ncc2n1C` [Compound P14, 2-[5-(4-chloro-2-methyl-phenyl)-3-ethylsulfonyl-2-pyridyl]-3-methyl-6-(trifluoromethyl)imidazo[4,5-c]pyridine], for which the pest or weed control at 400 ppm in assay [1], in assay [3], in assay [5], in assay [6] and in assay [7] was > 80% each time.
With `CCSc1cc(-c2ccc(Cl)cc2)cnc1-c1nc2cc(C(F)(F)F)ncc2n1C` [Compound P15, 2-[5-(4-chlorophenyl)-3-ethylsulfanyl-2-pyridyl]-3-methyl-6-(trifluoromethyl)imidazo[4,5-c]pyridine], the pest or weed control at 400 ppm in assay [1], in assay [3], in assay [5] and in assay [6] was > 80% in each case.
`CCS(=O)(=O)c1cc(-c2cccc(-c3nnc(C)o3)c2)cnc1-c1nc2cc(C(F)(F)F)ncc2n1C` [Compound P20]: the pest or weed control at 400 ppm in assay [2], in assay [3], in assay [5] and in assay [7] was > 80% throughout.
`CCS(=O)(=O)c1cc(-c2ccc(Cl)cc2)ccc1-c1nc2cc(C(F)(F)F)ncc2n1C` [Compound P22]: the pest or weed control at 400 ppm in assay [1], in assay [2], in assay [3], in assay [5] and in assay [6] was > 80% in each case. In addition, in assay [4], the pest or weed control at 12.5 ppm was ≥ 80%.
With `CCS(=O)(=O)c1cc(-c2cccc(-c3nnco3)c2)cnc1-c1nc2cc(C(F)(F)F)ncc2n1C` [Compound P23], the pest or weed control at 400 ppm in assay [1], in assay [3], in assay [5], in assay [6] and in assay [7] was > 80% each time. For the same compound, the pest or weed control at 12.5 ppm in assay [4] was ≥ 80%.
In the case of `CCS(=O)(=O)c1cc(-c2ccc([Si](C)(C)C)cc2)cnc1-c1nc2cc(C(F)(F)F)ncc2n1C` [Compound P26], the pest or weed control at 400 ppm in assay [5] and in assay [6] was > 80% throughout.
With `CCS(=O)(=O)c1cc(-c2ccc(C(F)(F)F)cc2)ccc1-c1nc2cc(C(F)(F)F)ncc2n1C` [Compound P27], the pest or weed control at 400 ppm in assay [1], in assay [2], in assay [3], in assay [5] and in assay [6] was > 80% each time. In addition, the pest or weed control at 12.5 ppm in assay [4] was ≥ 80%.
In the case of `CCS(=O)(=O)c1cc(-c2ccccc2SC)cnc1-c1nc2cc(C(F)(F)F)ncc2n1C` [Compound P28], the pest or weed control at 400 ppm in assay [5], in assay [6] and in assay [7] was > 80% in each case.
As for `CCS(=O)(=O)c1cc(-c2cccc(CC#N)c2)cnc1-c1nc2cc(C(F)(F)F)ncc2n1C` [Compound P29], the pest or weed control at 400 ppm in assay [7] is > 80%.
`CCS(=O)(=O)c1cc(-c2ccccc2OCCSC)cnc1-c1nc2cc(C(F)(F)F)ncc2n1C` [Compound P30]: in assay [3], the pest or weed control at 400 ppm was > 80%.
With `CCS(=O)(=O)c1cc(-c2ccc(CC#N)cc2)cnc1-c1nc2cc(C(F)(F)F)ncc2n1C` [Compound P31], the pest or weed control at 400 ppm in assay [5] and in assay [7] was > 80% throughout.
Consider `CCSc1ccc(-c2cnc(-c3nc4cc(C(F)(F)F)ncc4n3C)c(S(=O)(=O)CC)c2)cc1` [Compound P32], for which the pest or weed control at 400 ppm in assay [1], in assay [3], in assay [5], in assay [6] and in assay [7] was > 80% throughout.
As to `CCSc1cc(-c2ccc(C(F)(F)F)cc2)ccc1-c1nc2cc(C(F)(F)F)ncc2n1C` [Compound P33], the pest or weed control at 400 ppm in assay [1] and in assay [6] was > 80% throughout.
`CCS(=O)(=O)c1cc(-c2cc(F)c(F)cc2F)cnc1-c1nc2cc(C(F)(F)F)ncc2n1C` [Compound P35]: the pest or weed control at 400 ppm in assay [1], in assay [3], in assay [5] and in assay [6] was > 80% each time. The pest or weed control at 12.5 ppm in assay [4] was ≥ 80%.
Consider `CCS(=O)(=O)c1cc(-c2ccc(-n3cccn3)cc2)cnc1-c1nc2cc(C(F)(F)F)ncc2n1C` [Compound P37], for which the pest or weed control at 400 ppm in assay [1], in assay [3], in assay [5], in assay [6] and in assay [7] was > 80% throughout.
For `CCc1ccccc1-c1cnc(-c2nc3cc(C(F)(F)F)ncc3n2C)c(S(=O)(=O)CC)c1` [Compound P38], the pest or weed control at 400 ppm in assay [5] and in assay [6] was > 80% in each case.
